{"source": "patent EP2589385A1", "about": "“TRIPLE COMBINATION FOR THE TREATMENT OF CANCER” (Fundación Centro Nacional de Investigaciones Oncológicas, priority 2011, dated 2013)", "key": {"[1]": {"system": "human primary pancreatic cancer cells (A6L and 185)", "experiment": "Viability of adherent cells after inhibitor pretreatment", "type": "cell-based", "conditions": "pretreatment with inhibitor"}, "A6L and 185 cells": {"system": "A6L and 185 cells", "experiment": "Sphere formation assay (CSC self-renewal)", "type": "cell-based, human", "conditions": "for sphere formation / sphere forming capacity: 10, 20, and 40µM, 7 days, vs control", "protocol": "(§1) Human pancreatic tumours were obtained with written informed consent from all patients. For in vitro studies, tissue fragments were minced, enzymatically digested with collagenase (Stem Cell Technologies, Vancouver, BC) for 90 min at 37°C (Mueller TM et al. Gastroenterology 2009 137(3):1102-13) and after centrifugation for 5 min at 1200 rpm the pellets were resuspended and cultured in RPMI, 10%FBS and 50units/ml pen/strep. Pancreatic cancer spheres were generated by placing the pancreatic cancer cell in suspension (20,000 cells/ml) in serum-free DMEM/F12 media, supplemented with B27 (1:50, Invitrogen), 20ng/ml bFGF and 50units/ml pen/strep. After 7 days of incubation, spheres were typically >75µm big with ~97% CD133high. For serial passaging, 7-day-old spheres were harvested using 40µm cell strainers, dissociated to single cells with trypsin, and then re-grown for 7 days. Cultures were kept no longer than 4 weeks after recovery from frozen stocks."}, "[2]": {"system": "pancreatic cancer cells (185 and A6L)", "experiment": "Invasion assay, modified Boyden chamber with Matrigel", "type": "cell-based, human", "conditions": "for effects of Nodal and Activin on cell invasiveness: cells pretreated with inhibitor at 20µM", "protocol": "Invasion assays were performed using modified Boyden chambers filled with Matrigel™ (BioCoat®, BD Biosciences, Heidelberg, Germany). […] 500µl of cell suspensions containing 5x10^4 pre-treated or untreated cells were added to the Matrigel™ coated inserts, and 750µl of serum-free medium with or without 300ng/ml recombinant human Nodal was added to the lower chamber. The assay chambers were incubated for 22h at 37°C. Invaded cells were fixed in 4% PFA and stained with DAPI. The ratios of cells in the lower chamber versus total seeded cells (in per cent) were calculated."}, "phosphorylation of Smad2": {"system": "phosphorylation of Smad2", "experiment": "Smad2 phosphorylation assay (western blot)", "type": "cell-based, human", "conditions": "simultaneous treatment with inhibitor and rNodal or rActivin", "description": "PVDF membranes containing electrophoretically separated proteins from human primary pancreatic cancer cells and spheres were probed with mouse antibodies against Nodal (ab556676; Abcam, Inc.), Smad2 (3103; Cell Signalling Technology, Inc.), GAPDH (ab8245-100; Abcam, Inc.), Smad4 (sc-7966; Santa Cruz Biotechnology, Inc.) and rabbit antibody against pSmad2 (3108; Cell Signalling Technology, Inc.), treated with peroxidase-conjugated goat anti-mouse or anti-rabbit Ig secondary antibody (Sigma), and then visualized by enhanced chemoluminescence (Amersham, Inc.). Human primary pancreatic cancer cells were serum-starved for 3h in RPMI (GIBCO). Following starvation, the cells were incubated for 30 min at 37°C with recombinant human Nodal or Activin proteins (300 ng/ml and 100 ng/ml, respectively; R&D) either alone or in the presence of the SB431542 (10 µM, Sigma). Anti-Smad2 and anti-phospho-Smad2 (Ser465/467) Antibodies (Cell Signalling Technology) were used, following the manufacturer's instructions."}, "CD133+ population": {"system": "CD133+ population", "experiment": "CD133 content by flow cytometry after in vitro treatment", "type": "cell-based, human", "protocol": "To identify pancreatic CSC, the following antibodies were used: anti-CD133/1-APC or PE; CD133/2-APC (all Miltenyi, Bergisch-Gladbach, Germany) was used for purity testing after MACSorting; EpCAM-FITC, CD44-PE or appropriate isotype-matched control antibodies (Beckton Dickinson, Heidelberg, Germany). Propidium iodide or 7-AAD was used for exclusion of dead cells (eBiosciences, San Diego, CA). Samples were analysed by flow cytometry using a FACS Canto II (BD) and data were analysed with FlowJo 9.2 software (Ashland, Oregon)."}, "CD133+ cells": {"system": "CD133+ cells", "experiment": "Cell cycle analysis with BrdU flow kit", "type": "cell-based, human"}, "L3.6pl cells": {"system": "L3.6pl cells", "experiment": "In vivo treatment of established orthotopic pancreatic cancer cell line xenografts", "parameters": "species or system female NMRI nu/nu mice", "protocol": "(§2) Single-cell suspensions were either orthotopically implanted into the pancreas of female NMRI nu/nu mice (Janvier, Le Genest-Saint-Isle, France) or 2mm3 pieces of primary, in vivo expanded pancreatic cancer tissue were subcutaneously implanted, and mice were randomized to the respective treatment groups. Size and weight of the pancreatic tumours were monitored. Gemcitabine was administered twice a week (125 mg/kg i.p.). SB431542 was used at 25 mg/kg and CUR199691 at 100 mg/kg, both by oral gavages twice daily for three weeks.\nMice were analysed with a 3-Tesla MRI system (Magnetom Tim Trio, Siemens, Erlangen, Germany) using a dedicated small animal coil and T2-weighted scanning."}, "[3]": {"system": "primary human pancreatic cancer tissue xenografts", "experiment": "In vivo treatment of primary human pancreatic cancer tissue xenografts", "parameters": "species or system female NMRI nu/nu mice", "protocol": "as §2"}, "[4]": {"system": "cells isolated from harvested tumours", "experiment": "Sphere formation capacity of cells isolated from treated tumours on day 100", "type": "cell-based, human", "conditions": "cells from tumours harvested on day 100 (Fig. 7G, left panel)", "protocol": "as §1"}, "CD133+ CSC": {"system": "CD133+ CSC", "conditions": "treatment with gemcitabine; cited from earlier work"}, "[5]": {"system": "xenotransplanted human pancreatic cancer", "conditions": "in vivo therapy with gemcitabine; cited from earlier work"}}, "data": [{"smiles": "Cc1cccc(-c2nn3c(c2-c2ccnc4ccc(C(N)=O)cc24)CCC3)n1", "note": "[LY2157299]", "values": [{"measurement": "viability of adherent cells", "setting": "[1]", "value": "did not affect the viability of adherent cells"}, {"measurement": "sphere formation / sphere forming capacity", "setting": "A6L and 185 cells", "value": "did not display any effects on sphere forming capacity"}, {"measurement": "sphere forming capacity", "setting": "A6L and 185 cells; summary statement of Example 8 (Fig. 4A)", "value": "neither the Alk5 inhibitor LY2157299 nor the TGF-β receptor II neutralizing antibodies resulted in significant changes of sphere forming capacity"}, {"measurement": "enhanced invasiveness of CSC treated with rTGF-β", "setting": "[2]; Alk5 inhibitor with rTGF-β", "value": "abrogated the enhanced invasiveness of CSC treated with rTGF-β"}]}, {"smiles": "NC(=O)c1ccc(-c2nc(-c3ccc4c(c3)OCO4)c(-c3ccccn3)[nH]2)cc1", "note": "[SB431542]", "values": [{"measurement": "reversal of rNodal/rActivin-enhanced phosphorylation of Smad2", "setting": "phosphorylation of Smad2", "value": "almost reversed this enhanced phosphorylation of Smad2"}, {"measurement": "viability of adherent cells", "setting": "[1]", "value": "did not affect the viability of adherent cells"}, {"measurement": "sphere formation / sphere forming capacity", "setting": "A6L and 185 cells", "value": "dose-dependently (10, 20, and 40µM) blocked sphere formation as compared to control"}, {"measurement": "effects of Nodal and Activin on cell invasiveness", "setting": "[2]", "value": "significantly attenuated the effects of Nodal and Activin on cell invasiveness"}, {"measurement": "cell invasion of sphere-derived cells", "setting": "[2]; conditioned medium from PSC cells in the lower compartment (Fig. 17B)", "value": "Cell invasion was abrogated"}, {"measurement": "time until the CD133+ population replenished", "setting": "CD133+ population; after four days of treatment with SB431542 alone", "value": "≤ 48", "unit": "h"}, {"measurement": "CD133 content / CD133+ population", "setting": "CD133+ population; four days of treatment", "value": "marked decrease in CD133 content"}, {"measurement": "percentage of CD133+ cells in S phase", "setting": "CD133+ cells", "value": "did not affect the percentage of CD133+ cells in S phase"}, {"measurement": "percentage of apoptotic CD133+ cells", "setting": "CD133+ cells; result in words", "value": "nor did it increase the percentage of apoptotic CD133+ cells"}]}, {"smiles": "Cc1cccc(-c2[nH]c(C(C)(C)C)nc2-c2ccc3c(c2)OCO3)n1", "note": "[SB505124]", "values": [{"measurement": "effects of Nodal and Activin on cell invasiveness", "setting": "[2]", "value": "significantly attenuated the effects of Nodal and Activin on cell invasiveness"}]}, {"smiles": "Nc1ccn([C@@H]2O[C@H](CO)[C@@H](O)C2(F)F)c(=O)n1", "note": "[gemcitabine, 4-amino-l-[3,3-difluoro-4-hydroxy-5-(hydroxymethyl)tetrahydrofuran-2-yl]-1 H-pyrimidin-2-one]", "values": [{"measurement": "survival / long-term survival", "setting": "L3.6pl cells; follow-up until day 100 (Fig. 7C)", "value": "significantly prolonged survival"}, {"measurement": "tumour take rate", "setting": "L3.6pl cells; orthotopic cell line xenografts", "value": 100, "unit": "%"}, {"measurement": "median survival", "setting": "L3.6pl cells; orthotopic cell line xenografts, treatment started one week after injection, control 32 days", "value": 54, "unit": "days"}, {"measurement": "histological differentiation of remaining tumours", "setting": "[3]; day 100", "value": "poor differentiation"}, {"measurement": "tumour growth after gemcitabine withdrawal", "setting": "[3]; long-term follow-up", "value": "reaccelerated in growth"}, {"measurement": "sphere forming capacity", "setting": "[4]", "value": "strong sphere forming capacity"}, {"measurement": "effect on CD133+ CSC", "setting": "CD133+ CSC", "value": "no detectable effect"}, {"measurement": "CD133+ cells in the residual tumour tissue", "setting": "[5]", "value": "significant enrichment of CD133+ cells in the residual tumour tissue"}]}]}
